As usually defined, the EC50 is the midpoint of the concentration-response curve.

Chain of STING (Q86WV6 whole entry R71H/G230A/H232R/R293Q): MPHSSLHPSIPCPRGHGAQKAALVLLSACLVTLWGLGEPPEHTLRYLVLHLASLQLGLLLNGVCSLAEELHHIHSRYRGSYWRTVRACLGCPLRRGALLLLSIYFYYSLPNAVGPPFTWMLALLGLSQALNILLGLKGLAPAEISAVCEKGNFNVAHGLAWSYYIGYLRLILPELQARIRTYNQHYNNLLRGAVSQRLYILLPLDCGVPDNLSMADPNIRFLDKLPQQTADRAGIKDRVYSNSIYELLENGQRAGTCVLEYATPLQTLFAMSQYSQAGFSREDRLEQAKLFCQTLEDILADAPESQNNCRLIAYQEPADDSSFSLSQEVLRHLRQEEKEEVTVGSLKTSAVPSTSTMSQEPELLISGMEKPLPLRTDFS

The assay has as its target STING (Homo sapiens, UniProt Q86WV6, G230A/H232R/R293Q/R71H). In words: STING reporter assay in THP1-Dual KO-IFNAR2 cells (2′3′cGAMP stimulation, luciferase reporter). It counts as cell-based. To be noted: 15 μM 2′3′cGAMP stimulation, 24 h, read-out: Pharmaron, THP1_IFNAR2 STING 24 h Luci Normalized: GeoMean EC50. A digest of the protocol: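 THP1-Dual KO-IFNAR2 cells (2×10E6 cells/mL) with compounds at 0.0017-100 μM final, stimulated with 15 μM final 2′3′cGAMP delivered by Lipofectamine 2000; 24 h at 37 °C. Luciferase in supernatant read with QUANTI-Luc Plus; EC50 derived from luminescence.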
On the technique in general: Reporter assays use an easily measured gene product as a stand-in for the process of interest.
Consider `O=C(Nc1c[nH]c2ccc(O[C@H]3C[C@@H](c4ccc(C(F)(F)F)cc4)C3)cc12)C1CC(O)C1` (stereo partly drawn) [Compound 338, 3-hydroxy-N-(5-(cis-3-(4-(trifluoromethyl)phenyl)cyclobutoxy)-1H-indol-3-yl)cyclobutane-1-carboxamide], for which the EC50 is 0.2 to 1 µM.

As for `COCC(=O)Nc1c[nH]c2ccc(O[C@H]3C[C@H](c4ccc(C(F)(F)F)cc4)C3)cc12` [Compound 258, 2-methoxy-N-(5-(trans-3-(4-(trifluoromethyl)phenyl)cyclobutoxy)-1H-indol-3-yl)acetamide], the EC50 lay within 0.04 to 0.2 µM.

For `CC(=O)Nc1c[nH]c2ccc(CNS(=O)(=O)c3ccc(C(F)(F)F)cc3)cc12` [Compound 265, N-(5-(((4-(trifluoromethyl)phenyl)sulfonamido)methyl)-1H-indol-3-yl)acetamide], the concentration giving a half-maximal response (EC50) was 5 to 100 µM.

For `O=C(Nc1c[nH]c2ccc(CCOc3ccc(C(F)(F)F)cc3)cc12)C1CC(F)(F)C1` [Compound 388, 3,3-difluoro-N-(5-(2-(4-(trifluoromethyl)phenoxy)ethyl)-1H-indol-3-yl)cyclobutane-1-carboxamide], the EC50 fell in the range of 0.2 to 1 µM.

Consider `CC(=O)Nc1c[nH]c2ccc(OCC[C@@H]3C[C@@H]4CN(C)C[C@@H]4C3)cc12` [Compound 292, N-(5-(2-((3aR,5r,6aS)-2-methyloctahydrocyclopenta[c]pyrrol-5-yl)ethoxy)-1H-indol-3-yl)acetamide], for which the EC50 fell in the range of 5 to 100 µM.

Regarding `CC(=O)Nc1c[nH]c2ccc(COCC3CCN(CC(F)(F)F)CC3)cc12` [Compound 268, N-(5-(((1-(2,2,2-trifluoroethyl)piperidin-4-yl)methoxy)methyl)-1H-indol-3-yl)acetamide], the half-maximal effective concentration (EC50) was in the range of 1 to 5 µM.

Regarding `COCC1(C(=O)Nc2c[nH]c3ccc(O[C@H]4C[C@H](c5ccc(C(F)(F)F)cc5)C4)cc23)CC1` [Compound 468, l-(methoxymethyl)-N-{5-[(1R,3R)-3-[4-(trifluoromethyl)phenyl]cyclobutoxy]-1H-indol-3-yl}cyclopropane-1-carboxamide], the EC50 lay within 0.2 to 1 µM.

In the case of `CC1(C(=O)Nc2c[nH]c3ccc(OCCc4ccc(C(F)(F)F)cc4)cc23)CCC1` [Compound 235, 1-methyl-N-(5-(4-(trifluoromethyl)phenethoxy)-1H-indol-3-yl)cyclobutane-1-carboxamide], the EC50 was 0.04 to 0.2 µM.

`CC(=O)Nc1c[nH]c2ccc(CCNc3ccc(C(F)(F)F)nc3)cc12` [Compound 126, N-(5-(2-((6-(trifluoromethyl)pyridin-3-yl)amino)ethyl)-1H-indol-3-yl)acetamide]: the EC50 was 1 to 5 µM.

As for `O=C(Nc1c[nH]c2ccc(OCC[C@@H]3C[C@@H]4CN(CC(F)(F)F)C[C@@H]4C3)cc12)C1CC(F)(F)C1` [Compound 588, 3,3-difluoro-N-(5-(2-((3aR,5r,6aS)-2-(2,2,2-trifluoroethyl)octahydrocyclopenta[c]pyrrol-5-yl)ethoxy)-1H-indol-3-yl)cyclobutane-1-carboxamide], the concentration for a half-maximal effect (EC50) fell in the range of 0.04 to 0.2 µM.

For `CC1(C(=O)Nc2c[nH]c3ccc(O[C@H]4C[C@@H](c5ccc(C(F)(F)F)cc5)C4)cc23)COC1` [Compound 378, 3-methyl-N-(5-(cis-3-(4-(trifluoromethyl)phenyl)cyclobutoxy)-1H-indol-3-yl)oxetane-3-carboxamide], the 50% effective concentration (EC50) lay within 0.2 to 1 µM.

As to `O=C(Nc1c[nH]c2ccc(OCCc3ccc(C(F)(F)F)nc3)cc12)C1CCC1` [Compound 142, N-(5-(2-(6-(trifluoromethyl)pyridin-3-yl)ethoxy)-1H-indol-3-yl)cyclobutanecarboxamide], the EC50 fell in the range of 0.2 to 1 µM.

On to `O=C(Nc1c[nH]c2ccc(OCc3ccc(C(F)(F)F)cc3)cc12)C1CC(O)C1` (stereo not shown) [Compound 329, 3-hydroxy-N-(5-((4-(trifluoromethyl)benzyl)oxy)-1H-indol-3-yl)cyclobutane-1-carboxamide], for which the 50% effective concentration (EC50) is 0.2 to 1 µM.

Take `O=C(Nc1c[nH]c2ccc(OCCc3ccc(C(F)(F)F)nc3)cc12)C1COC1` [Compound 373, N-(5-(2-(6-(trifluoromethyl)pyridin-3-yl)ethoxy)-1H-indol-3-yl)oxetane-3-carboxamide]: the EC50 lay within 1 to 5 µM.

`O=C(Nc1c[nH]c2ccc(OCc3ccc(C(F)(F)F)cc3)cc12)C1CCOCC1` [Compound 156, N-(5-{[4-(trifluoromethyl)phenyl]methoxy}-1H-indol-3-yl)oxane-4-carboxamide]: the EC50 was in the range of 0.2 to 1 µM.

With `CC(=O)Nc1c[nH]c2ccc(OCCC3CCCN(CC(F)(F)F)C3)cc12` (single isomer, unassigned) [Compound 279], the EC50 is 1 to 5 µM.

As to `C[C@]1(C(=O)Nc2c[nH]c3ccc(OCC[C@@H]4C[C@@H]5CN(CC(F)(F)F)C[C@@H]5C4)cc23)C[C@H](O)C1` [Compound 514, (1r,3R)-3-hydroxy-1-methyl-N-(5-(2-((3aR,5r,6aS)-2-(2,2,2-trifluoroethyl)octahydrocyclopenta[c]pyrrol-5-yl)ethoxy)-1H-indol-3-yl)cyclobutane-l-carboxamide], the concentration giving a half-maximal response (EC50) lay in the range of 0.2 to 1 µM.

Turning to `CC1(C)CC(C(=O)Nc2c[nH]c3ccc(OCC[C@@H]4C[C@@H]5CN(CC(F)(F)F)C[C@@H]5C4)cc23)C1` [Compound 346, 3,3-dimethyl-N-(5-(2-((3aR,5r,6aS)-2-(2,2,2-trifluoroethyl)octahydrocyclopenta[c]pyrrol-5-yl)ethoxy)-1H-indol-3-yl)cyclobutane-1-carboxamide], the concentration for a half-maximal effect (EC50) was in the range of 0.2 to 1 µM.

Regarding `CC1(C)CC1C(=O)Nc1c[nH]c2ccc(CCOc3ccc(C(F)(F)F)cc3)cc12` (stereo not shown) [Compound 397, 2,2-dimethyl-N-(5-(2-(4-(trifluoromethyl)phenoxy)ethyl)-1H-indol-3-yl)cyclopropane-1-carboxamide], the EC50 is 0.2 to 1 µM.

Regarding `CC(=O)Nc1c[nH]c2ccc(CCOc3cnc(C(F)(F)F)nc3)cc12` [Compound 184, N-(5-(2-((2-(trifluoromethyl)pyrimidin-5-yl)oxy)ethyl)-1H-indol-3-yl)acetamide], the concentration giving a half-maximal response (EC50) was in the range of 5 to 100 µM.

With `CC(=O)Nc1c[nH]c2ccc(CCCc3ccc(C(F)(F)F)cc3)cc12` [Compound 132, N-(5-(3-(4-(trifluoromethyl)phenyl)propyl)-1H-indol-3-yl)acetamide], the EC50 lay within 0.04 to 0.2 µM.

With `COC(=O)C(Cc1ccc(C(F)(F)F)cc1)Cc1ccc2[nH]cc(NC(C)=O)c2c1` (stereo not shown) [Compound 527, methyl 3-(3-acetamido-1H-indol-5-yl)-2-(4-(trifluoromethyl)benzyl)propanoate], the concentration giving a half-maximal response (EC50) lay within 1 to 5 µM.

As to `O=C(Nc1c[nH]c2ccc(OCc3ccc(C(F)(F)F)cc3)cc12)C1CC(Cl)C1` (stereo not shown) [Compound 322, 3-chloro-N-(5-((4-(trifluoromethyl)benzyl)oxy)-1H-indol-3-yl)cyclobutane-1-carboxamide], the half-maximal effective concentration (EC50) is 0.2 to 1 µM.

For `O=C(Nc1c[nH]c2ccc(OCCc3ccc(C(F)(F)F)cc3)cc12)C1CN(CC(F)(F)F)C1` [Compound 210, 1-(2,2,2-trifluoroethyl)-N-(5-(4-(trifluoromethyl)phenethoxy)-1H-indol-3-yl)azetidine-3-carboxamide], the EC50 was 0.04 to 0.2 µM.

As to `O=C(Nc1c[nH]c2ccc(CCCc3ccc(C(F)(F)F)cc3)cc12)C1CCC1` [Compound 139, N-(5-(3-(4-(trifluoromethyl)phenyl)propyl)-1H-indol-3-yl)cyclobutanecarboxamide], the 50% effective concentration (EC50) fell in the range of 0.04 to 0.2 µM.

In the case of `CC1(C(=O)Nc2c[nH]c3ccc(OCc4ccc(C(F)(F)F)cc4)cc23)CN(CC(F)F)C1` [Compound 421, 1-(2,2-difluoroethyl)-3-methyl-N-(5-((4-(trifluoromethyl)benzyl)oxy)-1H-indol-3-yl)azetidine-3-carboxamide], the concentration for a half-maximal effect (EC50) lay in the range of 0.2 to 1 µM.

As to `CC1(C(=O)Nc2c[nH]c3ccc(O[C@H]4C[C@H](c5ccc(C(F)(F)F)cc5)C4)cc23)CN(CC(F)F)C1` [Compound 483, 1-(2,2-difluoroethyl)-3-methyl-N-(5-(trans-3-(4-(trifluoromethyl)phenyl)cyclobutoxy)-1H-indol-3-yl)azetidine-3-carboxamide], the EC50 was 0.04 to 0.2 µM.

`C[C@H]1C[C@@H]1C(=O)Nc1c[nH]c2ccc(CCOc3ccc(C(F)(F)F)cc3)cc12` [Compound 394, (1S,2S)-2-methyl-N-(5-(2-(4-(trifluoromethyl)phenoxy)ethyl)-1H-indol-3-yl)cyclopropane-1-carboxamide]: the 50% effective concentration (EC50) was 0.04 to 0.2 µM.

Consider `O=C(Nc1c[nH]c2ccc(OCCc3ccc(C(F)(F)F)cc3)cc12)C1(F)CC1` [Compound 218, 1-fluoro-N-(5-(4-(trifluoromethyl)phenethoxy)-1H-indol-3-yl)cyclopropane-1-carboxamide], for which the EC50 lay in the range of 0.2 to 1 µM.

On to `CC(C)(C)C(=O)Nc1c[nH]c2ccc(OCc3ccc(C(F)(F)F)cc3)cc12` [Compound 316, N-(5-((4-(trifluoromethyl)benzyl)oxy)-1H-indol-3-yl)pivalamide], for which the half-maximal effective concentration (EC50) is 0.2 to 1 µM.

Regarding `CC(=O)Nc1c[nH]c2ccc(CCOC3CCN(CC(F)(F)F)CC3)cc12` [Compound 288, N-(5-(2-((1-(2,2,2-trifluoroethyl)piperidin-4-yl)oxy)ethyl)-1H-indol-3-yl)acetamide], the EC50 lay in the range of 5 to 100 µM.

With `CC(=O)Nc1c[nH]c2ccc(CCOc3ccc(Cl)cc3)cc12` [Compound 229, N-(5-(2-(4-chlorophenoxy)ethyl)-1H-indol-3-yl)acetamide], the EC50 lay within 0.2 to 1 µM.

As for `O=C(Nc1c[nH]c2ccc(OCCC3CCN(CC(F)(F)F)CC3)cc12)C1CCC1` [Compound 129, N-(5-(2-(1-(2,2,2-trifluoroethyl)piperidin-4-yl)ethoxy)-1H-indol-3-yl)cyclobutanecarboxamide], the EC50 was in the range of 0.2 to 1 µM.

Consider `CC(=O)Nc1c[nH]c2ccc(OCC3(c4ccc(C(F)(F)F)cc4)CC3)cc12` [Compound 289, N-(5-((1-(4-(trifluoromethyl)phenyl)cyclopropyl)methoxy)-1H-indol-3-yl)acetamide], for which the 50% effective concentration (EC50) fell in the range of 1 to 5 µM.

These data come from patent US12503436B2, “Compounds and compositions for treating conditions associated with STING activity” (NOVARTIS PHARMA AG, priority 2021, dated 2025).
